Converted amounts (≈) assume the structure as drawn.
Experiments:
Format in all cases: functional
Staphylococcus aureus [1] = experiment: Antibacterial activity against methicilin-resistant Staphylococcus aureus N315 assessed as inhibition of bacterial growth incubated for 18 hrs by two fold broth microdilution assay
Enterococcus faecalis = experiment: Antibacterial activity against Enterococcus faecalis assessed as inhibition of bacterial growth incubated for 18 hrs by two fold broth microdilution assay
Staphylococcus aureus [2] = experiment: Antibacterial activity against Staphylococcus aureus assessed as inhibition of bacterial growth incubated for 18 hrs by two fold broth microdilution assay
Staphylococcus aureus [3] = experiment: Antibacterial activity against Staphylococcus aureus ATCC 25923 assessed as inhibition of bacterial growth incubated for 18 hrs by two fold broth microdilution assay
Staphylococcus aureus [4] = experiment: Antibacterial activity against Staphylococcus aureus ATCC 29213 assessed as inhibition of bacterial growth incubated for 18 hrs by two fold broth microdilution assay
Klebsiella pneumoniae = experiment: Antibacterial activity against Klebsiella pneumoniae assessed as inhibition of bacterial growth incubated for 18 hrs by two fold broth microdilution assay
Escherichia coli [5] = experiment: Antibacterial activity against Escherichia coli assessed as inhibition of bacterial growth incubated for 18 hrs by two fold broth microdilution assay
Pseudomonas aeruginosa [6] = experiment: Antibacterial activity against Pseudomonas aeruginosa assessed as inhibition of bacterial growth incubated for 18 hrs by two fold broth microdilution assay
Acinetobacter baumannii = experiment: Antibacterial activity against Acinetobacter baumannii assessed as inhibition of bacterial growth incubated for 18 hrs by two fold broth microdilution assay
Pseudomonas aeruginosa [7] = experiment: Antibacterial activity against Pseudomonas aeruginosa ATCC 27853 assessed as inhibition of bacterial growth incubated for 18 hrs by two fold broth microdilution assay
Escherichia coli [8] = experiment: Antibacterial activity against Escherichia coli ATCC 25922 assessed as inhibition of bacterial growth incubated for 18 hrs by two fold broth microdilution assay

| Compound | MIC (Staphylococcus aureus [1]) | MIC (Enterococcus faecalis) | MIC (Staphylococcus aureus [2]) | MIC (Staphylococcus aureus [3]) | MIC (Staphylococcus aureus [4]) | MIC (Klebsiella pneumoniae) | MIC (Escherichia coli [5]) | MIC (Pseudomonas aeruginosa [6]) | MIC (Acinetobacter baumannii) | MIC (Pseudomonas aeruginosa [7]) | MIC (Escherichia coli [8]) |
| --- | --- | --- | --- | --- | --- | --- | --- | --- | --- | --- | --- |
| N#C/C(=C\c1cn(Cc2ccc([N+](=O)[O-])cc2)c2ccccc12)S(=O)(=O)c1ccc(N)cc1 | 128 µg/mL (≈ 279 µM) | 128 µg/mL (≈ 279 µM) | 256 µg/mL (≈ 558 µM) | 256 µg/mL (≈ 558 µM) | 128 µg/mL (≈ 279 µM) | 64 µg/mL (≈ 140 µM) | 128 µg/mL (≈ 279 µM) | 64 µg/mL (≈ 140 µM) | 64 µg/mL (≈ 140 µM) | 128 µg/mL (≈ 279 µM) | 128 µg/mL (≈ 279 µM) |
| CC(=O)Nc1ccc(S(=O)(=O)/C(C#N)=C/c2c[nH]c3ccc([N+](=O)[O-])cc23)cc1 | 64 µg/mL (≈ 156 µM) | 32 µg/mL (≈ 78 µM) | 32 µg/mL (≈ 78 µM) | 128 µg/mL (≈ 312 µM) | 32 µg/mL (≈ 78 µM) | 64 µg/mL (≈ 156 µM) | 64 µg/mL (≈ 156 µM) | 64 µg/mL (≈ 156 µM) | 8 µg/mL (≈ 19.5 µM) | 32 µg/mL (≈ 78 µM) | 64 µg/mL (≈ 156 µM) |
| N#C/C(=C\c1cn(CC2CCCC2)c2ccccc12)S(=O)(=O)c1ccc(N)cc1 | 256 µg/mL (≈ 631 µM) | 32 µg/mL (≈ 78.9 µM) | 256 µg/mL (≈ 631 µM) | 256 µg/mL (≈ 631 µM) | 16 µg/mL (≈ 39.5 µM) | 4 µg/mL (≈ 9.86 µM) | 256 µg/mL (≈ 631 µM) | 64 µg/mL (≈ 158 µM) | 32 µg/mL (≈ 78.9 µM) | 64 µg/mL (≈ 158 µM) | 8 µg/mL (≈ 19.7 µM) |
| CCn1cc(C(=O)O)c(=O)c2cc(F)c(N3CCNCC3)cc21 [NORFLOXACIN] | 8 µg/mL (≈ 25.1 µM) | 4 µg/mL (≈ 12.5 µM) | 2 µg/mL (≈ 6.26 µM) | 2 µg/mL (≈ 6.26 µM) | 1 µg/mL (≈ 3.13 µM) | 2 µg/mL (≈ 6.26 µM) | 4 µg/mL (≈ 12.5 µM) | 2 µg/mL (≈ 6.26 µM) | 4 µg/mL (≈ 12.5 µM) | 4 µg/mL (≈ 12.5 µM) | 4 µg/mL (≈ 12.5 µM) |
| N#C/C(=C\c1cn(Cc2ccccc2Cl)c2ccccc12)S(=O)(=O)c1ccc(N)cc1 | 256 µg/mL (≈ 571 µM) | 16 µg/mL (≈ 35.7 µM) | 1 µg/mL (≈ 2.23 µM) | 1 µg/mL (≈ 2.23 µM) | 2 µg/mL (≈ 4.46 µM) | 1 µg/mL (≈ 2.23 µM) | 32 µg/mL (≈ 71.4 µM) | 16 µg/mL (≈ 35.7 µM) | 16 µg/mL (≈ 35.7 µM) | 2 µg/mL (≈ 4.46 µM) | 64 µg/mL (≈ 143 µM) |
| CC(=O)Nc1ccc(S(=O)(=O)/C(C#N)=C/c2cn(CCN(C)C)c3ccccc23)cc1 | 128 µg/mL (≈ 293 µM) | 256 µg/mL (≈ 586 µM) | 128 µg/mL (≈ 293 µM) | 16 µg/mL (≈ 36.7 µM) | 2 µg/mL (≈ 4.58 µM) | 8 µg/mL (≈ 18.3 µM) | 128 µg/mL (≈ 293 µM) | 64 µg/mL (≈ 147 µM) | 32 µg/mL (≈ 73.3 µM) | 16 µg/mL (≈ 36.7 µM) | 64 µg/mL (≈ 147 µM) |
| CC(=O)Nc1ccc(S(=O)(=O)/C(C#N)=C/c2cn(Cc3cccc(F)c3)c3ccccc23)cc1 | 256 µg/mL (≈ 541 µM) | 32 µg/mL (≈ 67.6 µM) | 64 µg/mL (≈ 135 µM) | 16 µg/mL (≈ 33.8 µM) | 16 µg/mL (≈ 33.8 µM) | 256 µg/mL (≈ 541 µM) | 128 µg/mL (≈ 270 µM) | 64 µg/mL (≈ 135 µM) | 16 µg/mL (≈ 33.8 µM) | 16 µg/mL (≈ 33.8 µM) | 64 µg/mL (≈ 135 µM) |
| CC(=O)Nc1ccc(S(=O)(=O)/C(C#N)=C/c2c[nH]c3cc(Br)ccc23)cc1 | 64 µg/mL (≈ 144 µM) | 32 µg/mL (≈ 72 µM) | 32 µg/mL (≈ 72 µM) | 128 µg/mL (≈ 288 µM) | 32 µg/mL (≈ 72 µM) | 4 µg/mL (≈ 9 µM) | 128 µg/mL (≈ 288 µM) | 64 µg/mL (≈ 144 µM) | 16 µg/mL (≈ 36 µM) | 16 µg/mL (≈ 36 µM) | 64 µg/mL (≈ 144 µM) |
| CCCCCCn1cc(/C=C(\C#N)S(=O)(=O)c2ccc(NC(C)=O)cc2)c2ccccc21 | 32 µg/mL (≈ 71.2 µM) | 4 µg/mL (≈ 8.9 µM) | 256 µg/mL (≈ 569 µM) | 4 µg/mL (≈ 8.9 µM) | 1 µg/mL (≈ 2.22 µM) | 256 µg/mL (≈ 569 µM) | 8 µg/mL (≈ 17.8 µM) | 4 µg/mL (≈ 8.9 µM) | 8 µg/mL (≈ 17.8 µM) | 8 µg/mL (≈ 17.8 µM) | 8 µg/mL (≈ 17.8 µM) |
| CCCCn1cc(/C=C(\C#N)S(=O)(=O)c2ccc(N)cc2)c2ccccc21 | 256 µg/mL (≈ 675 µM) | 4 µg/mL (≈ 10.5 µM) | 2 µg/mL (≈ 5.27 µM) | 2 µg/mL (≈ 5.27 µM) | 1 µg/mL (≈ 2.64 µM) | 1 µg/mL (≈ 2.64 µM) | 4 µg/mL (≈ 10.5 µM) | 2 µg/mL (≈ 5.27 µM) | 256 µg/mL (≈ 675 µM) | 4 µg/mL (≈ 10.5 µM) | 4 µg/mL (≈ 10.5 µM) |

Reference: ChEMBL document CHEMBL5625248, “Identification of unique indolylcyanoethylenyl sulfonylanilines as novel structural scaffolds of potential antibacterial agents” (Eur J Med Chem, 2023)
